Results as given in the NIST ThermoML archive (doi:10.1016/j.tca.2017.03.027).
± gives the expanded uncertainty stated by the source.

Columns and labels:
[1] = Crystal; DTA
[2] = Molar enthalpy of transition or fusion; conditions: Crystal; DSC

| Compound | Normal melting temperature [1] [°C] | Molar enthalpy of transition or fusion [2] [kJ/mol] |
| --- | --- | --- |
| CCCCCCCCCC(=O)O [decanoic acid] | 31.10 ± 4 | 28.7 ± 1.3 |
| CCCCCCCCCCCCCCCCCC(=O)O [octadecanoic acid] | 69.00 ± 4 | 63.4 ± 2.8 |
| CCCCCCCCCCCCCC(=O)O [tetradecanoic acid] | 53.70 ± 4 | 42.8 ± 1.9 |
